How the values were obtained:
Type in all cases: in vivo, rice
[1] = test system: single trait mutant lines (P1003A205V, R0146G654E); assay: 16GH-T7 greenhouse Imazamox trial, injury in single trait mutant lines; settings: Imazamox 0.5× to 4× at about preflood stage, alone or 2 weeks after 1× Imazethapyr
Excerpt: (§1) FIG. 3A to FIG. 3I illustrate the results of Example 1: FIG. 3A control; FIG. 3B 0.5× Imazamox; FIG. 3C 1× Imazamox; FIG. 3D 2× Imazamox; FIG. 3E 4× Imazamox; FIG. 3F 1× Imazethapyr+0.5× Imazamox; FIG. 3G 1× Imazethapyr+1× Imazamox; FIG. 3H 1× Imazethapyr+2× Imazamox; FIG. 3I 1× Imazethapyr+4× Imazamox; Pots L to R: LF2-RTC2/LM1-RTC1, LF1-RTC2/LM1-RTC1, LF3-RTC2\LM4-RTC1, mutated line P1003A205V, mutated line R0146G654E, sensitive control commercial variety Cypress, commercial hybrid CLXL745.
(§2) Trial consisted of 2 treatment regimens with Imazamox applications at approximately the preflood stage with rates of 0.5×, 1×, 2×, or 4×, either alone or 2 weeks following application of 1× Imazethapyr.
(§3) FIG. 4 Representative Pots 4 Weeks Post Application of Imazamox.

[2] = test system: RT IMI hybrids (LF2-RTC2/LM1-RTC1, LF1-RTC2/LM1-RTC1, LF3-RTC2\LM4-RTC1); assay: 16GH-T7 greenhouse Imazamox trial, injury in RT IMI hybrids; settings: Imazamox 0.5×, 1×, 2× or 4× at about preflood stage, alone or 2 weeks after 1× Imazethapyr, any treatment
Excerpt: as §1, §2, §3

A205V-G654E hybrids = assay: 15SA-T9 IMI conversion efficacy trial; settings: 2 applications (2 leaf and preflood)
Procedure: 2 leaf and preflood application of IMI herbicide on materials converted with RiceTec IMI traits and controls. All males included RTC1 (A205V) in their genome. Females with RTC2 (G654E) were not included due to limited seed numbers. Females were tested separately in 15GH-T8 using potted plant replications.

[3] = test system: heterozygous A205V hybrids; settings: 2 leaf and preflood application
Excerpt: Trial: 2 leaf and preflood application of Imazethapyr or Kifix™ (imazapic/imazapir) herbicide on materials converted with RiceTec IMI traits and commercial IMI control.

[4] = test system: G654E (RTC2) homozygous line; assay: 16-T7 log sprayer trial, Imazethapyr, homozygous G654E line; settings: single application, half-step log sprayer, rates 16× to 1/128×
[5] = test system: homozygous A205V (RTC1) mutant line (P1003A205V); assay: 16-T7 log sprayer trial, Imazethapyr, homozygous A205V line; settings: single application, all tested rates 8× (48 oz/acre) and lower
G654E/A205V hybrids = assay: 16-T7 log sprayer trial, Imazethapyr, G654E/A205V hybrids; settings: single application, half-step log sprayer, rates 16× to 1/128×; either hybrid

Row | Structure (SMILES) | injury [1] | injury [2] | injury rates (A205V-G654E hybrids) | tolerance as compared to the A205V-G654E hybrids [3] | % of injury 3 weeks post 3-4 leaf application [4] | % of injury 3 weeks post 3-4 leaf application [5] | % of injury 3 weeks post 3-4 leaf application (G654E/A205V hybrids)
1 | COCc1cnc(C2=NC(C)(C(C)C)C(=O)N2)c(C(=O)O)c1 (stereo not shown) [Imazamox, imazamox] | injury was observed | No injury |  |  |  |  | 
2 | CCc1cnc(C2=NC(C)(C(C)C)C(=O)N2)c(C(=O)O)c1 (stereo not shown) [Imazethapyr, imazethapyr] |  |  | very low injury rates | reduced tolerance | lower than expected | below 10% | no observed injury

— patent US11877553B2, “Effects of a plurality of mutations to improve herbicide resistance/tolerance in rice” (priority 2017, dated 2024)
